These results are taken from US6831075B2, “Heterocyclic substituted pyrazolones” (Cephalon, Inc., priority 1999, dated 2004).

T3 sequence (P80192 144-412 limits assumed): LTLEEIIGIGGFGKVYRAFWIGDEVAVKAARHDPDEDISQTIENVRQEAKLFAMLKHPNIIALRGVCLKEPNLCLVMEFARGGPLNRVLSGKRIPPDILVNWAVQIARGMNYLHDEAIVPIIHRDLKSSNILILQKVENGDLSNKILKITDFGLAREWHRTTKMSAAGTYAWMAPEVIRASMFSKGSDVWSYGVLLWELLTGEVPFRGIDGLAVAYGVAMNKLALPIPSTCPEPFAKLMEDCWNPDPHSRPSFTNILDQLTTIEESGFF
T2 sequence (P11362 398-822 limits assumed): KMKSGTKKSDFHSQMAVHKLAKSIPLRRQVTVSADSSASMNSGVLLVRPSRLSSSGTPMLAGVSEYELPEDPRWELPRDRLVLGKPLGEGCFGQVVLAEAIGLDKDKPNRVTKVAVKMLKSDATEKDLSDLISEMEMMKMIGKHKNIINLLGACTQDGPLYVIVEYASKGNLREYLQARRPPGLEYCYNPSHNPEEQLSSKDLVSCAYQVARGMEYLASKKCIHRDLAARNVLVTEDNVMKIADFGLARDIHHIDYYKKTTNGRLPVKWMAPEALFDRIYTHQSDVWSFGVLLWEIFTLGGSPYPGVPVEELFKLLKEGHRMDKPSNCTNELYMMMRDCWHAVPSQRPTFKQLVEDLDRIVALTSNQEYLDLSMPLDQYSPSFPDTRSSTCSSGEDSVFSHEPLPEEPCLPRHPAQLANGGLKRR

One experiment deals with T1, baculoviral GST-MLK2KDLZ (Homo sapiens, UniProt Q02779).
T1 construct: 3 μg/ml of baculoviral GST-MLK2KDLZ; GST (N); host or cells: baculovirus expression system
T1 sequence (Q02779 98-440 limits assumed): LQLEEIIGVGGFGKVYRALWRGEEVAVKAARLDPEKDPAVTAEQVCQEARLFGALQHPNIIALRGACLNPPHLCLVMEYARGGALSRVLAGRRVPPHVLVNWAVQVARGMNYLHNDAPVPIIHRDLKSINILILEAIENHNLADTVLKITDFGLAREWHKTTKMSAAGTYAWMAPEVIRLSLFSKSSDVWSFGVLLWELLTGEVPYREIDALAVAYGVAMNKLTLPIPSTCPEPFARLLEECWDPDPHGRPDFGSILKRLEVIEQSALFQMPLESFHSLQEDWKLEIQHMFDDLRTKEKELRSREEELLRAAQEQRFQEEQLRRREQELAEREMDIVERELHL
Briefly: Mixed Lineage Kinase-2 inhibition assay (Millipore Multiscreen plate, 32P). Format: biochemical. Conditions: 1 uM compound; 100 μM ATP. The procedure: Inhibition of Mixed Lineage Kinase-2 Activity
Assays were performed using the Millipore Multiscreen plate format as described for MLK1. Each 50-μl assay mixture contained 20 mM Hepes, pH 7, 1 mM EGTA, 10 mM MgCl2, 1 mM DTT, 25 mM β-glycerophosphate, 100 μM ATP, 0.25 μCi [γ-^32P]ATP, 0.1% BSA, 500 μg/ml myelin basic protein (UBI #13-104), 2% DMSO, various concentrations of test compound, and 3 μg/ml of baculoviral GST-MLK2KDLZ. Samples were incubated for 15 min. at 37° C. The reaction was stopped by adding ice cold 50% TCA and the proteins were allowed to precipitate for 30 min at 4° C. The plates were then washed with ice cold 25% TCA Supermix scintillation cocktail was added, and the plates were allowed to equilibrate for 1-2 hours prior to counting.
As to `N#CCCn1cc(C=C2C(=O)NN=C2c2ccco2)c2ccccc21` [Compound 67], the “MLK-2 Kinase % inhibition @ 1 uM” value is on record as −1%.
With `O=C1NN=C(c2ccco2)C1=Cc1c[nH]c2ccc(OCc3ccccc3)cc12` [Compound 43], the “MLK-2 Kinase % inhibition @ 1 uM” value worked out at 2%.
With `Cc1cc(C)c(C=C2C(=O)NN=C2c2cc(-c3ccc(Cl)cc3)oc2C)[nH]1` [Compound 41], the “MLK-2 Kinase % inhibition @ 1 uM” value is on record as −15%.
For `Cn1cc(C=C2C(=O)NN=C2c2cccs2)c2ccccc21` [Compound 63], the “MLK-2 Kinase % inhibition @ 1 uM” value stood at 1%.
With `COc1ccc2[nH]cc(C=C3C(=O)NN=C3c3ccoc3)c2c1` [Compound 11], the “MLK-2 Kinase % inhibition @ 1 uM” value stood at 7%.
`Cc1cc(C)c(C=C2C(=O)NN=C2c2csc3ccccc23)[nH]1` [Compound 39]: the “MLK-2 Kinase % inhibition @ 1 uM” value is listed as −7%.
Take `Cc1cccc2c(C=C3C(=O)NN=C3c3ccn(C)c3)c[nH]c12` [Compound 34]: the “MLK-2 Kinase % inhibition @ 1 uM” value stood at 1%.
Take `O=C1NN=C(c2ccco2)C1=Cc1cn(Cc2ccccc2)c2ccccc12` [Compound 69]: the “MLK-2 Kinase % inhibition @ 1 uM” value amounted to 4%.
Take `COc1ccc2[nH]cc(C=C3C(=O)NN=C3c3ccco3)c2c1` [Compound 51]: the “MLK-2 Kinase % inhibition @ 1 uM” value was found to be 3%.
Consider `N#CCCn1cc(C=C2C(=O)NN=C2c2ccoc2)c2ccccc21` [Compound 65], for which the “MLK-2 Kinase % inhibition @ 1 uM” value is −3%.
For the molecule `Cn1cc(C=C2C(=O)NN=C2c2ccoc2)c2ccccc21` [Compound 20], the “MLK-2 Kinase % inhibition @ 1 uM” value is reported as −3%.
Consider `Cc1cccc2c(C=C3C(=O)NN=C3c3ccoc3)c[nH]c12` [Compound 22], for which the “MLK-2 Kinase % inhibition @ 1 uM” value was −13%.
For `O=C1NN=C(c2nccs2)C1=Cc1cn(CCOCc2ccccc2)c2ccccc12` [Compound 72], the “MLK-2 Kinase % inhibition @ 1 uM” value worked out at 3%.
With `Cc1cc(C)c(C=C2C(=O)NN=C2c2c(C)coc2C)[nH]1` [Compound 27], the “MLK-2 Kinase % inhibition @ 1 uM” value is listed as −4%.
Turning to `Cn1cccc1C1=NNC(=O)C1=Cc1c[nH]c2ccc(F)cc12` [Compound 56], the “MLK-2 Kinase % inhibition @ 1 uM” value was −14%.

The next experiment concerns the target T2, recombinant human baculovirus-expressed FGFR1 cytoplasmic domain (Homo sapiens, UniProt P11362).
T2 construct: recombinant human baculovirus-expressed FGFR1 cytoplasmic domain; host or cells: baculovirus expression system
Description: FGFR1 kinase inhibition assay (ELISA-based, time-resolved fluorescence). Type of experiment: biochemical. Conditions: 1 uM compound; 20 μM ATP. Here is the method:
Inhibition of Fibroblast Growth Factor Receptor-1 (FGFR1) Kinase Activity
The FGFR1 kinase activity was measured using an ELISA-based format in a 96-well FluoroNUNC Maxisorp plate with a time-resolved fluorescence readout as described for trkA kinase. The plate was coated with 100 μl/well of substrate solution (recombinant human PLC-γ/GST) at a concentration of 10 μg/ml in Tris buffered saline (TBS). The FDGFR1 activity was assayed in 100-μl assay micture containing 50 mM HEPES (pH 7.4), 20 μM ATP, 10 mM MnCl2, 0.1% BSA, 2% DMSO, and 15 ng/ml recombinant human baculovirus-expressed FGFR1 cytoplasmic domain (prephosphorylated prior to use). Compounds were screened for inhibition of the FGFR1 kinase activity at a conentration of 1 μM. The kinase reaction was allowed to proceed at 37° C. for 15 minutes. The detection antibody, europium-labeled anti-phosphotyrosine antibody (Wallace #CR04-100), was added at 1:5000 dilution in block buffer (3% BSA in TBST). After a 1-hour incubation at 37° C., 100 μl of enhancement solution (Wallac #1244-105) and the plate was gently agitated. After 5 min, the fluorescence of the resulting solutions measured using the BMG Fluostar (Model # 403).
In the case of `N#CCCn1cc(C=C2C(=O)NN=C2c2ccco2)c2ccccc21` [Compound 67], the “FGFR1 % inhibition @ 1 uM” value turned out to be 23%.
For the molecule `O=C1NN=C(c2ccco2)C1=Cc1c[nH]c2ccc(OCc3ccccc3)cc12` [Compound 43], the “FGFR1 % inhibition @ 1 uM” value amounted to 26%.
Regarding `Cc1cc(C)c(C=C2C(=O)NN=C2c2cc(-c3ccc(Cl)cc3)oc2C)[nH]1` [Compound 41], the “FGFR1 % inhibition @ 1 uM” value came out at 21%.
On the same count and under the same terms, the result for `Cn1cc(C=C2C(=O)NN=C2c2cccs2)c2ccccc21` [Compound 63] reads 38%; that for `COc1ccc2[nH]cc(C=C3C(=O)NN=C3c3ccoc3)c2c1` [Compound 11], 24%.
The same measure, in the same setting: then `Cc1cc(C)c(C=C2C(=O)NN=C2c2csc3ccccc23)[nH]1` [Compound 39], with 13%; and `Cc1cccc2c(C=C3C(=O)NN=C3c3ccn(C)c3)c[nH]c12` [Compound 34], with 34%.
In the case of `O=C1NN=C(c2ccco2)C1=Cc1cn(Cc2ccccc2)c2ccccc12` [Compound 69], the “FGFR1 % inhibition @ 1 uM” value amounted to 30%.
Take `COc1ccc2[nH]cc(C=C3C(=O)NN=C3c3ccco3)c2c1` [Compound 51]: the “FGFR1 % inhibition @ 1 uM” value is reported as 9%.
Take `N#CCCn1cc(C=C2C(=O)NN=C2c2ccoc2)c2ccccc21` [Compound 65]: the “FGFR1 % inhibition @ 1 uM” value is reported as 21%.
As for `Cn1cc(C=C2C(=O)NN=C2c2ccoc2)c2ccccc21` [Compound 20], the “FGFR1 % inhibition @ 1 uM” value is 27%.
With `Cc1cccc2c(C=C3C(=O)NN=C3c3ccoc3)c[nH]c12` [Compound 22], the “FGFR1 % inhibition @ 1 uM” value worked out at 22%.
Consider `O=C1NN=C(c2nccs2)C1=Cc1cn(CCOCc2ccccc2)c2ccccc12` [Compound 72], for which the “FGFR1 % inhibition @ 1 uM” value amounted to 29%.
The same measure, in the same setting: the result for `Cc1cc(C)c(C=C2C(=O)NN=C2c2c(C)coc2C)[nH]1` [Compound 27] reads 36%; that for `Cn1cccc1C1=NNC(=O)C1=Cc1c[nH]c2ccc(F)cc12` [Compound 56], 30%.

A further experiment addresses T3, baculoviral GST-MLK1KD (Homo sapiens, UniProt P80192).
T3 construct: 1 μg/ml of baculoviral GST-MLK1KD; GST (N); host or cells: baculovirus expression system
Briefly: Mixed Lineage Kinase-1 inhibition assay (Millipore Multiscreen TCA in-plate, 32P). Type of experiment: biochemical. Conditions: 1 uM compound; 60 μM ATP. The procedure: Inhibition of Mixed Lineage Kinase-1 Activity
The kinase activity of MLK1 was assessed using the Millipore Multiscreen TCA “in-plate” format as described for protein kinase C (Pitt & Lee, J. Biomol. Screening, 1: 47-51, 1996). Briefly, each 50-μl assay mixture contained 20 mM Hepes, pH 7.0, 1 mM EGTA, 10 mM MgCl2, 1 mM DTT, 25 mM β-glycerophosphate, 60 μM ATP, 0.25 μCi [γ-^32P]ATP, 0.1% BSA, 500 μg/ml myelin basic protein (UBI #13-104), 2% DMSO, 1 μM of test compound, and 1 μg/ml of baculoviral GST-MLK1KD. Samples were incubated for 15 min at 37° C. The reaction was stopped by adding ice cold 50% TCA and the protein were allowed to precipitate for 30 min at 4° C. The plates were then washed with ice cold 25% TCA. Supermix scintillation cocktail was added, and the plates were allowed to equilibrate for 1-2 hours prior to counting using the Wallac MicroBeta 1450 PLUS scintillation counter.
As to `N#CCCn1cc(C=C2C(=O)NN=C2c2ccco2)c2ccccc21` [Compound 67], the “MLK-1 Kinase % inhibition @ 1 uM” value is on record as 3%.
Take `O=C1NN=C(c2ccco2)C1=Cc1c[nH]c2ccc(OCc3ccccc3)cc12` [Compound 43]: the “MLK-1 Kinase % inhibition @ 1 uM” value is 13%.
As to `Cc1cc(C)c(C=C2C(=O)NN=C2c2cc(-c3ccc(Cl)cc3)oc2C)[nH]1` [Compound 41], the “MLK-1 Kinase % inhibition @ 1 uM” value came to 13%.
As for `Cn1cc(C=C2C(=O)NN=C2c2cccs2)c2ccccc21` [Compound 63], the “MLK-1 Kinase % inhibition @ 1 uM” value is 14%.
Turning to `COc1ccc2[nH]cc(C=C3C(=O)NN=C3c3ccoc3)c2c1` [Compound 11], the “MLK-1 Kinase % inhibition @ 1 uM” value amounted to 21%.
`Cc1cc(C)c(C=C2C(=O)NN=C2c2csc3ccccc23)[nH]1` [Compound 39]: the “MLK-1 Kinase % inhibition @ 1 uM” value is 4%.
Turning to `Cc1cccc2c(C=C3C(=O)NN=C3c3ccn(C)c3)c[nH]c12` [Compound 34], the “MLK-1 Kinase % inhibition @ 1 uM” value is given as 17%.
In the case of `O=C1NN=C(c2ccco2)C1=Cc1cn(Cc2ccccc2)c2ccccc12` [Compound 69], the “MLK-1 Kinase % inhibition @ 1 uM” value is on record as 21%.
`COc1ccc2[nH]cc(C=C3C(=O)NN=C3c3ccco3)c2c1` [Compound 51]: the “MLK-1 Kinase % inhibition @ 1 uM” value is given as 26%.
As for `N#CCCn1cc(C=C2C(=O)NN=C2c2ccoc2)c2ccccc21` [Compound 65], the “MLK-1 Kinase % inhibition @ 1 uM” value was found to be 10%.
For `Cn1cc(C=C2C(=O)NN=C2c2ccoc2)c2ccccc21` [Compound 20], the “MLK-1 Kinase % inhibition @ 1 uM” value is 21%.
Regarding `Cc1cccc2c(C=C3C(=O)NN=C3c3ccoc3)c[nH]c12` [Compound 22], the “MLK-1 Kinase % inhibition @ 1 uM” value is 1%.
In the case of `O=C1NN=C(c2nccs2)C1=Cc1cn(CCOCc2ccccc2)c2ccccc12` [Compound 72], the “MLK-1 Kinase % inhibition @ 1 uM” value was 14%.
`Cc1cc(C)c(C=C2C(=O)NN=C2c2c(C)coc2C)[nH]1` [Compound 27]: the “MLK-1 Kinase % inhibition @ 1 uM” value was determined as 6%.
As to `Cn1cccc1C1=NNC(=O)C1=Cc1c[nH]c2ccc(F)cc12` [Compound 56], the “MLK-1 Kinase % inhibition @ 1 uM” value is given as −22%.
